US11701372B2, “Inhalation formulations of 1'-cyano substituted carba-nucleoside analogs” (priority 2020, dated 2023)
Read-outs that look alike come from different tables or passages of the source. Marks after values point to notes of the source that are not given here.

Tests used:
[1] = Respiratory tissue concentrations after inhalation in African Green Monkeys; settings: 24 hours
Procedure: (§1) The average deposited dose was calculated at 0.168 mg/kg and 0.536 mg/kg, respectively. Plasma, peripheral blood mononuclear cells (PBMCs), trachea, bronchi, lung lobe, liver, kidney, nasal mucosa and nasopharyngeal mucosa samples were collected in this study.

[2] = PBMC concentrations of metabolites after inhalation in African Green Monkeys; settings: both, monkey, in vivo
Procedure: as §1

[3] = assay type: physicochemical
Procedure: Samples for freeze-thaw cycling were also prepared and tested. For each condition, the physical stability was measured as % LS (label strength) and compared to % LS at T=0. […] The 7.5% SBECD formulation is also stable to freeze/thaw cycling (three cycles performed).

[4] = assay type: physicochemical; remark: listed apart in the source
Procedure: For each conditions, the physical stability was measured as % LS and compared to % LS at T=0.

[5] = Characterisation of milled suspension formulations (osmolarity, pH, particle size); assay type: physicochemical; settings: 0.5% w/v poloxamer 237, 0.9% sodium chloride
Procedure: The vial capped, vortexed briefly, and then placed in a Bertin Instruments Precellys® Evolution blender. The blender was used to wet mill the mixture for 15×30 second cycles, with 120 second rest time between cycles. The blender speed was 7,200 rpm and cooling set was set to high. After milling, the milled suspension was separated from the beads by withdrawing the suspension from the vial using a syringe with a 1.5'' 25G needle. The recovered volume of the concentrated suspension was noted as 2.97 mL, and the concentration was measured as 25.8 mg/mL. The suspension was diluted with 2.14 mL of vehicle to obtain the target concentration of 15 mg/mL. […] The chiller set to 30° F., pump set to 100 rpm, and agitator set to 3000 rpm. The pump was primed with 100 mL of vehicle, and the first 80 mL of flowthough from priming was sent to waste. The mill was then set to recirculate as feeding continued with the addition of 150 mL of pre-mill formulation intermediate, followed by 25 mL of vehicle rinse. The formulation was allowed to recirculate though the mill for 1 hr, after which the flow was directed to a collection bottle. After 100 mL of concentrated suspension formulation was collected in the bottle, a vehicle chase was fed into the mill. Collection was stopped when the recovered volume reached 250 mL.

[6] = 7.5% SBECD w/v, 2-8° C., 24 h timepoint
[7] = 7.5% SBECD w/v, RT, 24 h timepoint
[8] = 15 mg/mL in water with 0.1% w/v HPMC

SMILES: N#C[C@@]1(c2ccc3c(N)ncnn23)O[C@H](CO)[C@@H](O)[C@H]1O [Compound A]
- Metabolite Concentrations ([1]; Lower Lung Lobe, 0.168 mg/kg inhaled deposited dose, LOQ for A and C 0.154 nmol/g tissue): BLQ
- Metabolite Concentrations ([1]; Lower Lung Lobe, 0.536 mg/kg inhaled deposited dose, LLOQ for A and C 0.154 nmol/g tissue): BLQ
- Metabolite Concentrations ([1]; Upper Bronchi, 0.168 mg/kg inhaled deposited dose, LOQ for A and C 0.154 nmol/g tissue): BLQ
- Metabolite Concentrations ([1]; Upper Bronchi, 0.536 mg/kg inhaled deposited dose, LLOQ for A and C 0.154 nmol/g tissue): BLQ
- Metabolite Concentrations ([1]; Upper Trachea, 0.168 mg/kg inhaled deposited dose, LOQ for A and C 0.154 nmol/g tissue): BLQ
- Metabolite Concentrations ([1]; Upper Trachea, 0.536 mg/kg inhaled deposited dose, LLOQ for A and C 0.154 nmol/g tissue): BLQ
- concentration at 2 h ([2]; 0.168 mg/kg): 331 ± 92 nM
- concentration at 24 h ([2]; 0.536 mg/kg): 457 ± 130 nM

SMILES: CCC(CC)COC(=O)[C@H](C)N[P@](=O)(OC[C@H]1O[C@@](C#N)(c2ccc3c(N)ncnn23)[C@H](O)[C@@H]1O)Oc1ccccc1 [Formula Ia, (S)-2-ethylbutyl 2-(((S)-(((2R,3S,4R,5R)-5-(4-aminopyrrolo[2,1-f][1,2,4]triazin-7-yl)-5-cyano-3,4-dihydroxytetrahydrofuran-2-yl)methoxy)(phenoxy)phosphoryl)amino)propanoate]
- % LS (Initial) ([3]; 5% SBECD w/v): 101 % LS
- % LS After Stress, Hold ([3]; 5% SBECD w/v, 2-8° C. (48 h)): 101 % LS
- % LS After Stress, Hold After Seeding ([3]; 5% SBECD w/v, 2-8° C. (48 h)): 80 % LS
- % LS After Stress, Hold ([3]; 5% SBECD w/v, RT (48 h)): 101 % LS
- % LS After Stress, Hold After Seeding ([3]; 5% SBECD w/v, RT (48 h)): 68 % LS
- % LS After Stress, Freeze-thaw (3x) ([3]; 5% SBECD w/v, after seeding): 69 % LS
- % LS After Stress, Freeze-thaw (3x) ([3]; 5% SBECD w/v, without seeding): 101 % LS
- % LS (Initial) ([3]; 7.5% SBECD w/v): 101 % LS
- % LS After Stress, Hold [3, 6]: 104* % LS
- % LS After Stress, Hold After Seeding [3, 6]: 103* % LS
- % LS After Stress, Hold [3, 7]: 103* % LS
- % LS After Stress, Hold After Seeding [3, 7]: 102* % LS
- % LS After Stress, Freeze-thaw (3x) ([3]; 7.5% SBECD w/v, after seeding): 97 % LS
- % LS After Stress, Freeze-thaw (3x) ([3]; 7.5% SBECD w/v, without seeding): 99 % LS
- % LS (Initial) ([3]; 10% SBECD w/v): 101 % LS
- % LS After Stress, Hold ([3]; 10% SBECD w/v, 2-8° C. (48 h)): 101 % LS
- % LS After Stress, Hold After Seeding ([3]; 10% SBECD w/v, 2-8° C. (48 h)): 99 % LS
- % LS After Stress, Hold ([3]; 10% SBECD w/v, RT (48 h)): 101 % LS
- % LS After Stress, Hold After Seeding ([3]; 10% SBECD w/v, RT (48 h)): 98 % LS
- % LS After Stress, Freeze-thaw (3x) ([3]; 10% SBECD w/v, after seeding): 98 % LS
- % LS After Stress, Freeze-thaw (3x) ([3]; 10% SBECD w/v, without seeding): 100 % LS
- % LS (Initial) ([3]; 20% SBECD w/v): 102 % LS
- % LS After Stress, Hold ([3]; 20% SBECD w/v, 2-8° C. (48 h)): 101 % LS
- % LS After Stress, Hold After Seeding ([3]; 20% SBECD w/v, 2-8° C. (48 h)): 101 % LS
- % LS After Stress, Hold ([3]; 20% SBECD w/v, RT (48 h)): 101 % LS
- % LS After Stress, Hold After Seeding ([3]; 20% SBECD w/v, RT (48 h)): 101 % LS
- % LS After Stress, Freeze-thaw (3x) ([3]; 20% SBECD w/v, after seeding): 100 % LS
- % LS After Stress, Freeze-thaw (3x) ([3]; 20% SBECD w/v, without seeding): 100 % LS
- physical stability [4]: stable
- % LS T0 ([4]; pH 3.8): 99 % LS
- % LS After Stress, Hold ([4]; pH 3.8, 2-8° C. (1 wk)): 99 % LS
- % LS After Stress, Hold After Seeding ([4]; pH 3.8, 2-8° C. (1 wk)): 88 % LS
- % LS After Stress, Hold ([4]; pH 3.8, 2-8° C. (48 h)): 99 % LS
- % LS After Stress, Hold After Seeding ([4]; pH 3.8, 2-8° C. (48 h)): 99 % LS
- % LS After Stress, Hold ([4]; pH 3.8, 2-8° C. (72 h)): 99 % LS
- % LS After Stress, Hold After Seeding ([4]; pH 3.8, 2-8° C. (72 h)): 99 % LS
- % LS After Stress, Hold ([4]; pH 3.8, 2-8° C., 24 h): 100 % LS
- % LS After Stress, Hold After Seeding ([4]; pH 3.8, 2-8° C., 24 h): 100 % LS
- % LS After Stress, Freeze-thaw (3X) ([4]; pH 3.8, (+) seed): 99 % LS
- % LS After Stress, Freeze-thaw (3X) ([4]; pH 3.8, (−) seed): 99 % LS
- % LS After Stress, Hold ([4]; pH 3.8, RT (1 wk)): 99 % LS
- % LS After Stress, Hold After Seeding ([4]; pH 3.8, RT (1 wk)): 65 % LS
- % LS After Stress, Hold ([4]; pH 3.8, RT (24 h)): 100 % LS
- % LS After Stress, Hold After Seeding ([4]; pH 3.8, RT (24 h)): 99 % LS
- % LS After Stress, Hold ([4]; pH 3.8, RT (48 h)): 99 % LS
- % LS After Stress, Hold After Seeding ([4]; pH 3.8, RT (48 h)): 99 % LS
- % LS After Stress, Hold ([4]; pH 3.8, RT (72 h)): 99 % LS
- % LS After Stress, Hold After Seeding ([4]; pH 3.8, RT (72 h)): 99 % LS
- % LS T0 ([4]; pH 4.0): 100 % LS
- % LS After Stress, Hold ([4]; pH 4.0, 2-8° C. (1 wk)): 99 % LS
- % LS After Stress, Hold ([4]; pH 4.0, 2-8° C. (48 h)): 99 % LS
- % LS After Stress, Hold After Seeding ([4]; pH 4.0, 2-8° C. (48 h)): 79 % LS
- % LS After Stress, Hold ([4]; pH 4.0, 2-8° C. (72 h)): 100 % LS
- % LS After Stress, Hold After Seeding ([4]; pH 4.0, 2-8° C. (72 h)): 67 % LS
- % LS After Stress, Hold ([4]; pH 4.0, 2-8° C., 24 h): 100 % LS
- % LS After Stress, Hold After Seeding ([4]; pH 4.0, 2-8° C., 24 h): 96 % LS
- % LS After Stress, Freeze-thaw (3X) ([4]; pH 4.0, (+) seed): 99 % LS
- % LS After Stress, Freeze-thaw (3X) ([4]; pH 4.0, (−) seed): 99 % LS
- % LS After Stress, Hold ([4]; pH 4.0, RT (1 wk)): 98 % LS
- % LS After Stress, Hold ([4]; pH 4.0, RT (24 h)): 100 % LS
- % LS After Stress, Hold After Seeding ([4]; pH 4.0, RT (24 h)): 69 % LS
- % LS After Stress, Hold ([4]; pH 4.0, RT (48 h)): 99 % LS
- % LS After Stress, Hold After Seeding ([4]; pH 4.0, RT (48 h)): 60 % LS
- % LS After Stress, Hold ([4]; pH 4.0, RT (72 h)): 100 % LS
- % LS After Stress, Hold After Seeding ([4]; pH 4.0, RT (72 h)): 58 % LS
- osmolarity [5, 8]: 285 mOsm/kg
- pH [5, 8]: 6.89
- volume mean diameter particle size [5, 8]: 3.65 μm
- particle size by polarized light microscopy ([5]; 100 mg/mL in water with 0.1% w/v HPMC): < 5 μm
